Data taken from PMC8509676, “Residual Helicity at the Active Site of the Histidine Phosphocarrier, HPr, Modulates Binding Affinity to Its Natural Partners” (International Journal of Molecular Sciences, 2021).
Read-outs that look alike come from different tables or passages of the source.

T1: Regulator of sigma D from Escherichia coli (Rsd^ec) (E. coli, UniProt P0AFX4 1-158)
T1 construct: Rsd (regulator of sigma D), anti-sigma factor of sigma 70, E. coli; 158-residue-long protein; called 'intact Rsd' in the abstract and 'wild-type Rsd vector' in the methods; Vector was a gift from Ann Hochschild; source: E. coli C41, purified as described [24,50]
T1 sequence (looked up): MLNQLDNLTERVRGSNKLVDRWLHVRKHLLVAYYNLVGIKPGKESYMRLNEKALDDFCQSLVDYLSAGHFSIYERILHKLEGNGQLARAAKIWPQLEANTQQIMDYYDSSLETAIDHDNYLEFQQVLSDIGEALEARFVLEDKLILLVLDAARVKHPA


Key:
[1] = TFE titration followed by far-UV CD (disordered-helical two-state equilibrium); assay type: physicochemical; conditions: for [TFE]1/2 / m: TFE titration by far-UV CD, 20 µM peptide, two-state fit, fitting errors; for percentage of helical population (in parentheses): from ∆G^water assuming a two-state conformational equilibrium; for ∆G^water: product of m- and [TFE]1/2 values, error propagation
Protocol: For experiments in the presence of TFE, the same set of experimental parameters was used. Cosolvent concentrations were indicated in percentage of volume (%). […] The peptide concentration for these experiments was 20 µM.

[2] = target: T2, Rsd^ec (Escherichia coli, UniProt P0AFX4); assay: Isothermal titration calorimetry (ITC), peptide/Rsd^ec binding; conditions: for ΔH, Rsd^ec: 50 mM Tris pH 7.0
T2 construct: His-tag; made in house; host or cells: E. coli C41
Protocol: (§1) The experimental set-up and data processing of ITC experiments has been described previously. Rsd^ec or EIN^sc (at 10–20 µM) were injected into the cell, and the peptides in the syringe (100–200 µM) in 50 mM of Tris buffer, pH 7.0. The temperature for all the experiments was 25 °C. Typically, each calorimetric titration consisted of performing 19 injections with 2 μL volume, with a time spacing of 150 s, while stirring at 750 rpm in an Auto-iTC200 high-sensitivity microcalorimeter (MicroCal, Malvern-Panalytical, Malvern, UK). The results were analysed by applying a model that considered a single binding site (assuming a 1:1 stoichiometry) for the peptide/EIN^sc or peptide/Rsd^ec interaction using a nonlinear least-squares regression analysis in Origin 7.0 (OriginLab, Northampton, MA, USA) with user-defined fitting routines.

[3] = tested on: Staphylococcus aureus CECT59; assay type: cell-based; conditions: S. aureus CECT59, two-fold broth microdilution (CLSI), MH broth, 24 h, 37 °C; triplicate (sd = 0); highest concentration tested 400 µM
Protocol: The CECT59 strain of the Gram-positive bacteria Staphylococcus aureus from the Spanish Type Culture Collection (Colección Española de Cultivos Tipo, CECT, Universitat de Valencia, Spain) was used for determining its sensitivity to the HPr peptides studied in this work. The MIC for each peptide was determined by the two-fold broth microdilution method according to the Clinical and Laboratory Standards Institute (CLSI) guidelines, with some modifications as previously described. For this testing procedure, a bacteria colony previously grown in MH agar plates was isolated and incubated in MH broth at 37 °C overnight to prepare the bacteria inoculum to be used in each assay. Then, the bacteria suspensions were adjusted to a 100× dilution of an 0.5 McFarland turbidity standard in MH broth and incubated with different concentrations of each peptide in round-bottom 96-well polystyrene plates (Deltalab S.L., Rubí, Spain) (50 μL/well) for 24 h at 37 °C. The peptide concentrations employed comprised two-fold dilutions starting at either 120, 160, or 400 µM, depending on the experiment. […] All assays were performed in triplicate.

[4] = Far-UV CD, helicity from molar ellipticity at 222 nm; assay type: physicochemical; conditions: 5 °C; for [Θ]^222 (value in parentheses): 50 mM Tris pH 7.0; for Helicity (%): 50 mM Tris pH 7.0, from [Θ]^222 assuming −39,500 deg cm^2 dmol^−1 for a fully formed α-helix
Protocol: Spectra were collected on a Jasco J810 spectropolarimeter (Jasco, Tokyo, Japan) interfaced with a Peltier unit. Far-UV measurements were performed with samples placed in quartz cells with a 0.1 cm path length (Hellma, Kruibeke, Belgium), with a response time of 2 s, a band width of 1 nm, and a scan velocity of 50 nm/min. For all peptides, a wide range of concentrations (10–50 µM) was used to determine whether either the shape or the intensity of the spectra was concentration-dependent. None of those features changed in the concentration range explored. The experiments in aqueous solution were acquired at 5 °C in Tris buffer (50 mM, pH 7.0). Raw ellipticity was converted to molar ellipticity, [Θ], from which the fraction of helical populations was determined as previously described. For the experiments in the presence of each protein (repeated three times), the same concentration used in the fluorescence experiments was used, and the experimental set-up was the same as described above for the isolated peptides.

[5] = target: T2, Rsd^ec; assay: Fluorescence titration, peptide/Rsd^ec binding
Protocol: (§2) Spectra were collected at 25 °C on a Cary spectrofluorometer (Agilent, Madrid, Spain), with a Peltier temperature controller. The samples were prepared the day before and left overnight at 5 °C. Before measurements, the samples were incubated for 1 h at 25 °C. A quartz cell with a 1 cm path length (Hellma, Kruibeke, Belgium) was used. In all the experiments, the slit widths were equal to 5 nm for both the excitation and emission lights. Protein samples were excited at either 280 or 295 nm. The experiments were performed between 300 and 400 nm. The signal was acquired for 1 s, and the increment of wavelength was set to 1 nm. Appropriate blank corrections were made in all spectra. For the binding experiments, 3 µM of either protein (Rsd^ec or EIN^sc) and 15 µM of the corresponding peptide were mixed. The experiments in aqueous solution were acquired in Tris buffer (50 mM, pH 7.0).
(§3) For the titration between either of the two proteins (Rsd^ec or EIN^sc) and the corresponding peptide, increasing amounts of the latter, in a concentration range of 0 to 30 µM, were added to a solution with a fixed concentration of each protein (3 µM). The experimental set-up was identical to that described above, including preparation of the samples the day before and their storage overnight at 5 °C. Before measurements, the samples were incubated for 1 h at 25 °C. The fluorescence of a blank solution containing only the corresponding peptide was subtracted for each data point. […] The Kd was determined by following the fluorescence at selected wavelengths and fitting experimental data to Equation (1). […] At all used concentrations, the fluorescence was corrected by the inner-filter effects.

[6] = Translational diffusion NMR (DOSY); assay type: physicochemical; conditions: for D (translational diffusion coefficient): DOSY, 10 °C, 100% D2O, 70-120 µM peptide, fitting errors, repeated twice; for Rh (in parentheses, from DOSY): from comparison with the Rh of dioxane (2.12 Å)
Protocol: (b) Translational diffusion NMR (DOSY): Peptide concentrations were the same as those used in the 1D-^1H-NMR spectra. Translational self-diffusion measurements were performed with the pulsed-gradient spin-echo sequence in the presence of 100% D2O. The following relationship existed between the translational self-diffusion coefficient, D, and the delays used during experiment acquisition:(2) I/I0=−exp(DγH2δ^2G^2(Δ−δ/3−τ/2)) where I is the peak intensity of a particular resonance (or a group of them) at any gradient strength; I0 is the maximum peak intensity of the same resonance(s) at the smallest gradient strength (that is, at 2% of the total power of the gradient coil); D is the translational self-diffusion constant (in cm^2 s^−1); δ is the duration (in s) of the gradient; G is the gradient strength (in T cm^−1); ∆ is the time (in s) between the gradients; γH is the gyromagnetic constant of the proton (in rad s^−1 T^−1); and τ is the recovery delay between the bipolar gradients (100 µs in our experiments). The gradient strength (G) was varied in 16 lineal steps, between 2 and 95% of the total power of the gradient coil of the probe. The gradient strength was calibrated by using the value of D for the residual proton water line in a sample containing 100% D2O placed in a 5 mm tube [42]. Data were plotted as I/I0 versus G^2, and the exponential factor of the curve was:(3) DγH2δ^2(Δ−δ/3−τ/2) from which D can be obtained. The duration of the gradient (δ) was 2.25 ms, and the time between the two gradients (∆) was set to 200 ms. The signal from the methyl groups between 1.1 and 0.70 ppm were used for integration of the intensity. A final concentration of 1% of dioxane was added to each peptide; the hydrodynamic radius, Rh, of each peptide was obtained for comparison by assuming that the Rh of dioxane was 2.12 Å [42]. The DOSY experiment was repeated twice with fresh samples for each peptide.

[7] = target: EIN^sc (Streptomyces coelicolor, UniProt Q9KZP1); assay: biochemical; assay type: binding
Chain of EIN^sc (Q9KZP1 1-230): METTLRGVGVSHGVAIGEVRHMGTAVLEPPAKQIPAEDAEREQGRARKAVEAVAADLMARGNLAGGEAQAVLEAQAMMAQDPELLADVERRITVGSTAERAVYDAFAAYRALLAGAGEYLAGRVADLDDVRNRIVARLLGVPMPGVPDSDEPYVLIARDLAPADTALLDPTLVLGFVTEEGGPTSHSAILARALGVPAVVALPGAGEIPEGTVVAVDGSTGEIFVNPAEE
Protocol: as §2, §3

[8] = target: EIN^sc (N-terminal domain of EI^sc) (Streptomyces coelicolor, UniProt Q9KZP1); assay: biochemical; assay type: binding
Chain of EIN^sc (N-terminal domain of EI^sc) (Q9KZP1 1-230): as above
Protocol: as §1

[9] = target: EI (Streptomyces coelicolor) (UniProt Q9KZP1); assay: ITC; conditions: cited from earlier work
Chain of EI (Streptomyces coelicolor) (Q9KZP1 whole entry): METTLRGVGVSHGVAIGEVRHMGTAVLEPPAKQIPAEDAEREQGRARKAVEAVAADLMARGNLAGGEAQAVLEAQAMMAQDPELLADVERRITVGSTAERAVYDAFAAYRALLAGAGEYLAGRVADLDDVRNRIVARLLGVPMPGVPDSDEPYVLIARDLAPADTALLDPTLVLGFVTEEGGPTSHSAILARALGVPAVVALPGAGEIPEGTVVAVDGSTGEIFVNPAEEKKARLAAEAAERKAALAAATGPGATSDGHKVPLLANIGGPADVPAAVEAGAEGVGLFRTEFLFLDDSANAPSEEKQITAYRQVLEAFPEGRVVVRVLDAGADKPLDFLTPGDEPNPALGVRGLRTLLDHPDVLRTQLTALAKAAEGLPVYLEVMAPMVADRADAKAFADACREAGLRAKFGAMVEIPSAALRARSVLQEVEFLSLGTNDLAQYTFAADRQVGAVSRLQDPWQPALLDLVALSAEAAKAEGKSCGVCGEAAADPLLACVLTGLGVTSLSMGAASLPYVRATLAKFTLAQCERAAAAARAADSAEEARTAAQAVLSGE

[10] = target: Rsd (Escherichia coli) (UniProt C5A0T6); assay: ITC; conditions: cited from earlier work
[11] = target: EI EIN (Streptomyces coelicolor) (UniProt Q9KZP1); assay: ITC; conditions: cited from earlier work
Chain of EI EIN (Streptomyces coelicolor) (Q9KZP1 1-250): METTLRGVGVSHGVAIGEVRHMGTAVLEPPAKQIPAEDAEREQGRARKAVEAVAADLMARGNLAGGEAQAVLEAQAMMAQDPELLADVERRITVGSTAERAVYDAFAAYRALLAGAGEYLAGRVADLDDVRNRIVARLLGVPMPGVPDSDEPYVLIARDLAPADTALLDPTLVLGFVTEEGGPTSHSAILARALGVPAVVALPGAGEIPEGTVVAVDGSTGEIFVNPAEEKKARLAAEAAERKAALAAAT

[12] = target: T1, Regulator of sigma D from Escherichia …; assay: ITC; Rsd^ec or EIN^sc (10–20 µM) in the cell, peptide (100–200 µM) in the syringe; 50 mM Tris, pH 7.0, 25 °C; single binding-site model, 1:1 stoichiometry assumed; conditions: both partners purified
[13] = target: T1, Regulator of sigma D from Escherichia …; assay: other fluorescence titration; peptide 0–30 µM added to 3 µM Rsd^ec or EIN^sc; 50 mM Tris, pH 7.0, 25 °C; samples left overnight at 5 °C; blank of peptide subtracted; conditions: both partners purified
[14] = target: Rsd; parameters: method as in PMID 24324139; conditions: SPR; read-out: dissociation constant, Rsd-HPr in E. coli; cited from earlier work

| Molecule | [TFE]1/2 [1] | m [1] | percentage of helical population (in parentheses) [1] | ∆G^water [1] | ΔH, Rsd^ec ([2]; ITC, 25 °C) | MIC [3] | [Θ]^222 (value in parentheses) [4] | Helicity (%) [4] | D (translational diffusion coefficient) [6] | Rh (in parentheses, from DOSY) [6] | also measured |
| --- | --- | --- | --- | --- | --- | --- | --- | --- | --- | --- | --- |
| Ac-GWAEGLHARAASAAARAATATG-NH2 [P18A/I21A/F22A/V23A] | 21 ± 1 % (v/v) | 157 ± 26 cal/mol (% (v/v)) | 0.24% | 3.3 ± 0.6 kcal/mol | 4.3 ± 0.5 kcal/mol | > 400 µM | −7305.73 deg cm^2 dmol^−1 | 18.4% | 1.7 ± 0.1 cm^2 s^−1 × 10^6 | 12 ± 2 Å | Kd ([2]; ITC, 25 °C, 50 mM Tris pH 7.0, single binding-site model, read-out: Kd, Rsd^ec (ITC)): 5 ± 0.7 µM; Kd ([5]; fluorescence titration, 3 µM protein, 0-30 µM peptide, 25 °C, 50 mM Tris pH 7.0, uncertainties are fitting errors, repeated three times, read-out: Kd, Rsd^ec (fluorescence titration, value in parentheses) (converted)): 10 µM; Kd ([7]; fluorescence titration, 3 µM protein, 0-30 µM peptide, 25 °C, 50 mM Tris pH 7.0, uncertainties are fitting errors, repeated three times, read-out: Kd, EIN^sc (fluorescence titration, value in parentheses)): 11 µM |
| Ac-GWAEGLHARPASAFVRAATATG-NH2 [Peptide I21A] | 23.8 ± 0.4 % (v/v) | 197 ± 20 cal/mol (% (v/v)) | 0.02% | 4.7 ± 0.5 kcal/mol | 1.0 ± 0.4 kcal/mol | > 400 µM | −681.95 deg cm^2 dmol^−1 | 1.7% | 1.9 ± 0.1 cm^2 s^−1 × 10^6 | 11 ± 1 Å | Kd [2]: 2.6 ± 0.4 µM; Kd [5]: 8 µM |
| Ac-GWAEGLHARPASIFARAATATG-NH2 [Peptide V23A] | 22.7 ± 0.3 % (v/v) | 217 ± 23 cal/mol (% (v/v)) | 0.01% | 4.9 ± 0.5 kcal/mol | -0.8 ± 0.5 kcal/mol | > 400 µM | −988.51 deg cm^2 dmol^−1 | 2.5% | 2.0 ± 0.1 cm^2 s^−1 × 10^6 | 11 ± 1 Å | Kd [8]: 9.1 ± 0.9 µM; ΔH, EIN^sc ([8]; ITC, 25 °C, 50 mM Tris pH 7.0): -6.6 ± 0.5 kcal/mol; Kd [7]: 9 µM |
| HPr 9-30 (from UniProt O50515) |  |  |  |  |  |  |  |  |  |  | Kd [9]: 230 µM; Kd [10]: 2.5 µM |
| HPr (from UniProt O50515) |  |  |  |  |  |  |  |  |  |  | Kd [10]: 2 µM; Kd [11]: 12 µM |
| Ac-GWAEGLHARPASIAVRAATATG-NH2 (HPr of Streptomyces coelicolor, residues 9-30, with F22A; source: synthetic peptide, bought: NZYTech (purity >95%)) [HPr^9–30 F22A peptide] |  |  |  |  |  |  |  |  |  |  | Kd [12]: 5.9 ± 0.7 µM; dH [12]: 1.1 ± 0.5 kcal/mol; Kd [13]: 11 µM |
| HPr^sc: intact histidine phosphocarrier protein HPr from Streptomyces coelicolor (O50515) (protein, UniProt O50515 2-93, looked up) Phosphocarrier protein HPr: AERRVNVGWAEGLHARPASIFVRAATATGVPVTIAKADGSPVNAASMLAVLGLGAQGGEEIVLASDAEGAEAALERLAKLVAEGLEELPETV |  |  |  |  |  |  |  |  |  |  | Kd [14]: 0.00887 µM |
